Measured values taken from patent US10479786B2, “Protein kinase inhibitors” (Princeton Drug Discovery Inc, priority 2016, dated 2019).

Tests used:
Assay in all cases: Off-chip Mobility Shift Assay, kinase inhibition
Type in all cases: biochemical
ABL = target: T1, ABL (Homo sapiens, UniProt P00519); conditions: recombinant ABL; for inhibition at 0.001 µM: at 1 nM; for inhibition at 0.01 µM: at 10 nM
T1 construct: purchased Carna Biosciences, Inc

BMX = target: T2, BMX (Homo sapiens, UniProt P51813); conditions: recombinant BMX; for inhibition at 0.001 µM: at 1 nM; for inhibition at 0.01 µM: at 10 nM
T2 construct: purchased Carna Biosciences, Inc
T2 sequence (P51813 1-675): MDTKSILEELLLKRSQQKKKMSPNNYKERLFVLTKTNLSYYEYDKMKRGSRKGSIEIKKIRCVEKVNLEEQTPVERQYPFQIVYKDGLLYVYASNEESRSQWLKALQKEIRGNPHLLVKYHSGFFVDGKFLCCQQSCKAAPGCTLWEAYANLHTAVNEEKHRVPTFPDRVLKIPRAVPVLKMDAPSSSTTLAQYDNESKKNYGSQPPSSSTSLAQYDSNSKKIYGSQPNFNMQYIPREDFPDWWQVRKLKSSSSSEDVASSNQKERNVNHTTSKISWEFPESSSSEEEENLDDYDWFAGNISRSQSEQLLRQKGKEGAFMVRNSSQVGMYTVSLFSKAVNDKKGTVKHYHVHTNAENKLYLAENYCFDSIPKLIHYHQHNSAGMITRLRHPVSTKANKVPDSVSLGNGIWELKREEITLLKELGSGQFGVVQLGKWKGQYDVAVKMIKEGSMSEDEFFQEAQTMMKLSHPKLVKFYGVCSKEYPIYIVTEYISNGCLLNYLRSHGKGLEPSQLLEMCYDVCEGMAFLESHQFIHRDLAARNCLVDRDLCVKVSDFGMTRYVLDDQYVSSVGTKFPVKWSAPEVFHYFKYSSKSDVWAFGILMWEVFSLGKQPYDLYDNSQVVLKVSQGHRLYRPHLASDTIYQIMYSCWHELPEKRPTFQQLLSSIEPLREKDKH

DDR2 = target: T3, DDR2 (Homo sapiens, UniProt Q16832); conditions: at 10 nM; recombinant DDR2; read-out: inhibition
T3 construct: purchased Carna Biosciences, Inc
T3 sequence (Q16832 22-855): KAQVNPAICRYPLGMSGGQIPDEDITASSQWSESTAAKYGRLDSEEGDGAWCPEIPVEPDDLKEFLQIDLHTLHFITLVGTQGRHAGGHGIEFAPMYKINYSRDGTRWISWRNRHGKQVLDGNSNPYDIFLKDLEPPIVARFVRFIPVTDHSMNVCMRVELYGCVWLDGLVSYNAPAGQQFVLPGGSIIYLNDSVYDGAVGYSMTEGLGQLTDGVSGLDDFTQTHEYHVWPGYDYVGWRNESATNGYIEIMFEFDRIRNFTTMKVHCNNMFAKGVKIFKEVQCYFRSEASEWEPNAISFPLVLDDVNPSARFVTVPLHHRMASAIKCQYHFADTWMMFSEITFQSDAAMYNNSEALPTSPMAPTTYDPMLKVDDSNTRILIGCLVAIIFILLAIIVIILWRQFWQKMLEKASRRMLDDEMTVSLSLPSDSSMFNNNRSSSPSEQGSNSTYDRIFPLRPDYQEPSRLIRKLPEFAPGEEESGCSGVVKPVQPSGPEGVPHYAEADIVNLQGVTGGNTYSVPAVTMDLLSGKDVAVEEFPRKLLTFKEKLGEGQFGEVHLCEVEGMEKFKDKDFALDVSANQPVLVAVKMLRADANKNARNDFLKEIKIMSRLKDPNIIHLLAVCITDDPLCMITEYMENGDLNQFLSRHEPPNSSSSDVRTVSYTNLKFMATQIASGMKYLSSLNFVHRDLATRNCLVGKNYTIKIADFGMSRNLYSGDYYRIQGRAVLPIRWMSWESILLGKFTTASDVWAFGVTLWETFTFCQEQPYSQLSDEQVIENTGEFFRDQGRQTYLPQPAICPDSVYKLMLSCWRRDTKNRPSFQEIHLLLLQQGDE

EPHA1 = target: T4, EPHA1 (Homo sapiens, UniProt P21709); conditions: at 10 nM; recombinant EPHA1
T4 construct: purchased Carna Biosciences, Inc
T4 sequence (P21709 26-976): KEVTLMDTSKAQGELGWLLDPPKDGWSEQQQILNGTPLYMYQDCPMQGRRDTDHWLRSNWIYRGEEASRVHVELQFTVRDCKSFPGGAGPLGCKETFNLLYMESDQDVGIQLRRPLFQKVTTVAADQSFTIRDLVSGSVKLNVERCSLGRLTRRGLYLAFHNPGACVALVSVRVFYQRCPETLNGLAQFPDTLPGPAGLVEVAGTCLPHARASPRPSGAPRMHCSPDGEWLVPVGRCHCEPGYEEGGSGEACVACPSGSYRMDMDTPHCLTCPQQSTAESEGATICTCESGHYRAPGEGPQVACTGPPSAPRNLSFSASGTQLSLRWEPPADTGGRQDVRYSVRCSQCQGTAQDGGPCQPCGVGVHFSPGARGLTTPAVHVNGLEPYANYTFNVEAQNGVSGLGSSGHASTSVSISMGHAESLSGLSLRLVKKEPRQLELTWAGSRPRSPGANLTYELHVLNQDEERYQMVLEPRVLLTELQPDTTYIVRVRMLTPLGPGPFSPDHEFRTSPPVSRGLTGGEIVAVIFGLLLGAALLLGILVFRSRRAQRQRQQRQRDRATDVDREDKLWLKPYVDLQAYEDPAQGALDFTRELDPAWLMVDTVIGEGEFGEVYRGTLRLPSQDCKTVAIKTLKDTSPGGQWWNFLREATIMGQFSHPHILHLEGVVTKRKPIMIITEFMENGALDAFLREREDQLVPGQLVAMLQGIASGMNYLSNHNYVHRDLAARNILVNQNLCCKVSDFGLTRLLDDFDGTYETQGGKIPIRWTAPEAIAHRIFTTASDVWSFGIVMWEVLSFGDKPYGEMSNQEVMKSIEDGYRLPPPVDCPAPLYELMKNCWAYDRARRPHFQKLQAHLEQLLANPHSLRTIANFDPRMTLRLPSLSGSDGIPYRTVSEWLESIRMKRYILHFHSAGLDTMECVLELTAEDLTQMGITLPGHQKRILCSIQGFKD

FMS = target: T5, FMS (Homo sapiens, UniProt P07333); conditions: at 10 nM; recombinant FMS
T5 construct: purchased Carna Biosciences, Inc
T5 sequence (P07333 20-972): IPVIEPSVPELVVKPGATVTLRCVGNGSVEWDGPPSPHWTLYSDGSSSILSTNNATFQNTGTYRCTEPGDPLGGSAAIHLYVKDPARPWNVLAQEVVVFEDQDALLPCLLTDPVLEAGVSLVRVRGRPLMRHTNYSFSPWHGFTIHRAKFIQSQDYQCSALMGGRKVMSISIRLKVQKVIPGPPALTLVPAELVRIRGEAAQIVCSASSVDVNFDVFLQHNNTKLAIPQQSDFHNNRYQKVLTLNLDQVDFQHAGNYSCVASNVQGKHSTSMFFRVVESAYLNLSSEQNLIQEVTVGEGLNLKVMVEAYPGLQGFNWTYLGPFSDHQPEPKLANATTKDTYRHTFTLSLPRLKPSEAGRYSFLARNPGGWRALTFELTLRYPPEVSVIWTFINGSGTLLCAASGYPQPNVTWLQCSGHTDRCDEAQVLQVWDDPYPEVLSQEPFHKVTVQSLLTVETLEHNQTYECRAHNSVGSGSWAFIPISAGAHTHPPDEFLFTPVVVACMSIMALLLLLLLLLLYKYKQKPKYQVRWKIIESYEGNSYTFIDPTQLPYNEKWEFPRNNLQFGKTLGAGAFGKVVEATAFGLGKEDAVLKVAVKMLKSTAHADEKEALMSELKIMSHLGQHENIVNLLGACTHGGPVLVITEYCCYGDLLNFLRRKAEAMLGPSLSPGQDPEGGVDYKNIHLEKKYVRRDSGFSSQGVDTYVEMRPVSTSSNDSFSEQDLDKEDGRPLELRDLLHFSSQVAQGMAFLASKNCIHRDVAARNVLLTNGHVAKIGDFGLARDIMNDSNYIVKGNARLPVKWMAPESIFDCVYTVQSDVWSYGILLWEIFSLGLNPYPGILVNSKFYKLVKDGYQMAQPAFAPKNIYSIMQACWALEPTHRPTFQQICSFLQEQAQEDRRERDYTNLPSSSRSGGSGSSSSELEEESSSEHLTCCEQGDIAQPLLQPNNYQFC

FRK = target: T6, FRK (Homo sapiens, UniProt P42685); conditions: at 10 nM; recombinant FRK
T6 construct: purchased Carna Biosciences, Inc
T6 sequence (P42685 whole entry): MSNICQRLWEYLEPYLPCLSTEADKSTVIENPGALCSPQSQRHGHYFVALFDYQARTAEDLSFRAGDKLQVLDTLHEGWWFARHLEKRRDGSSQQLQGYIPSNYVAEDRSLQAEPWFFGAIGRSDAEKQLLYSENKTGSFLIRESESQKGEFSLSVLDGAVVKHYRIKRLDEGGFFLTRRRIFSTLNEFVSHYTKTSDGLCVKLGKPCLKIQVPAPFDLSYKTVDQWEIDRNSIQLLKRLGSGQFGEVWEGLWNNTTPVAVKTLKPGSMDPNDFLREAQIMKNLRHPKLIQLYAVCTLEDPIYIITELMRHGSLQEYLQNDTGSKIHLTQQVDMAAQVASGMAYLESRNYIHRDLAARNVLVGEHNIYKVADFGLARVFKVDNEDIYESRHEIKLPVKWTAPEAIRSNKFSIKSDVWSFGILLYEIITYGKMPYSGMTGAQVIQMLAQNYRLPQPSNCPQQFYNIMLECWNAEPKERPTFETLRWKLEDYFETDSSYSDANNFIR

LYNa = target: T7, LYNa (Homo sapiens, UniProt P07948); conditions: recombinant LYNa; for inhibition at 0.001 µM: at 1 nM; for inhibition at 0.01 µM: at 10 nM, read-out: inhibition
T7 construct: purchased Carna Biosciences, Inc
T7 sequence (P07948 whole entry): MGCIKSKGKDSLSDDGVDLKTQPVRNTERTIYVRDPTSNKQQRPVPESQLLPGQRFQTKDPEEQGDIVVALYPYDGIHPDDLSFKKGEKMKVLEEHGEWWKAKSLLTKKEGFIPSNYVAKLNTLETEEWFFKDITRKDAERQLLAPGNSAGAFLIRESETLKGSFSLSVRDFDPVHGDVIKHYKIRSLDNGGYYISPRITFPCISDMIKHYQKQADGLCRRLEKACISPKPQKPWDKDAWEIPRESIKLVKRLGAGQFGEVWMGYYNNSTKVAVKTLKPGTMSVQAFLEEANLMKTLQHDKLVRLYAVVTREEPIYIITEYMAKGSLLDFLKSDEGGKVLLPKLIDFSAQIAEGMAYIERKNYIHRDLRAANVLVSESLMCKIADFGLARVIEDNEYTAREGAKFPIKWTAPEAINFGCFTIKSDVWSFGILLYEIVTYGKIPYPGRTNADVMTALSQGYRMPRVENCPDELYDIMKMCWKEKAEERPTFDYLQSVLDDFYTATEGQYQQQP

PDGFRβ = target: T8, PDGFRβ (Homo sapiens, UniProt P09619); conditions: at 10 nM; recombinant PDGFRβ; read-out: inhibition
T8 construct: purchased Carna Biosciences, Inc

PIK3CA/PIK3R1 = target: T9, PIK3CA/PIK3R1 (Homo sapiens, UniProt P42336); conditions: at 10 nM; recombinant PIK3CA/PIK3R1
T9 construct: purchased Carna Biosciences, Inc
T9 sequence (P42336 whole entry): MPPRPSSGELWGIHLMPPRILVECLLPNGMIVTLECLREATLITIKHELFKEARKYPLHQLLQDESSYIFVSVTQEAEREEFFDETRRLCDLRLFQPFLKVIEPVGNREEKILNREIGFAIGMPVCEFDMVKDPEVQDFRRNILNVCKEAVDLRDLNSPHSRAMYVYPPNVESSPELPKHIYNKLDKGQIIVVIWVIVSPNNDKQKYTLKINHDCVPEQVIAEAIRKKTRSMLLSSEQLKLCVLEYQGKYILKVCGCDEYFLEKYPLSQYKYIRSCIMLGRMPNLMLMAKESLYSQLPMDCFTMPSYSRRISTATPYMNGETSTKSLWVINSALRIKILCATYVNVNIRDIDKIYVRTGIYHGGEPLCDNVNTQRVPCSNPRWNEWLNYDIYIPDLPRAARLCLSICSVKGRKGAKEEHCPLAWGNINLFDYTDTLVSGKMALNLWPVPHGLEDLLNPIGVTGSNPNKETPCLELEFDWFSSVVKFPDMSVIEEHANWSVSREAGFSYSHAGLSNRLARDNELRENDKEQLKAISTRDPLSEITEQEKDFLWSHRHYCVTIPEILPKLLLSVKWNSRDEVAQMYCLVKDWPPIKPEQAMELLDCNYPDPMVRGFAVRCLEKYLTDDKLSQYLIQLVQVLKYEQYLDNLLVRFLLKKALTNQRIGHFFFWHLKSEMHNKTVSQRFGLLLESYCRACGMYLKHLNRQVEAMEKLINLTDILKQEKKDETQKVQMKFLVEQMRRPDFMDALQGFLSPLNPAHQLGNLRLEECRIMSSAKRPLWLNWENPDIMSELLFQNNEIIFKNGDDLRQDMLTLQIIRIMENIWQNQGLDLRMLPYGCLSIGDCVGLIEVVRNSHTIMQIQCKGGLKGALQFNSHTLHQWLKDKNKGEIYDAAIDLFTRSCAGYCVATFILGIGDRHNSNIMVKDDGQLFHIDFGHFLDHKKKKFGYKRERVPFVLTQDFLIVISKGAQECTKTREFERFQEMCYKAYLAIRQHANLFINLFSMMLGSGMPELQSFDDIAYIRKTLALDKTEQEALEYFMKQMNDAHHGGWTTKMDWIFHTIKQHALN
T9 sequence (P27986 whole entry partner): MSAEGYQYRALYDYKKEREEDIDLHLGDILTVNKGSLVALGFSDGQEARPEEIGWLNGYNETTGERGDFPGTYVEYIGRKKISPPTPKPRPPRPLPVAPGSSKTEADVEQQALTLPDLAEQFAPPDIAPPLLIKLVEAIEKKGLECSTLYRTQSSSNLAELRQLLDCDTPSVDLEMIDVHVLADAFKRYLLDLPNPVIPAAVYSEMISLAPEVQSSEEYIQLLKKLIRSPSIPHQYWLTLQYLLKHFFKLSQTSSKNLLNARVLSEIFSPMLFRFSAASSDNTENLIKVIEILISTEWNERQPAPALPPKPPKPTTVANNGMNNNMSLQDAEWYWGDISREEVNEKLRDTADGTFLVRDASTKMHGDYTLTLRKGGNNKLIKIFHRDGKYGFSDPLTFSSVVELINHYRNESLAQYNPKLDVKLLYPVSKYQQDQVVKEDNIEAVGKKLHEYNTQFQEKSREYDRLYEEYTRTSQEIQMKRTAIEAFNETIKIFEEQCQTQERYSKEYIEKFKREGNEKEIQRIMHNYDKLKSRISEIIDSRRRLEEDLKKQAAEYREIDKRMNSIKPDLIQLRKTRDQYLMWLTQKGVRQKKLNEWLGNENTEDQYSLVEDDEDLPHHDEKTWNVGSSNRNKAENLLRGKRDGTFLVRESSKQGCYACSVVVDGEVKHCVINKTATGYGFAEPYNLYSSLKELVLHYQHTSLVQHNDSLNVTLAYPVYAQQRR

T1 sequence (P00519 whole entry): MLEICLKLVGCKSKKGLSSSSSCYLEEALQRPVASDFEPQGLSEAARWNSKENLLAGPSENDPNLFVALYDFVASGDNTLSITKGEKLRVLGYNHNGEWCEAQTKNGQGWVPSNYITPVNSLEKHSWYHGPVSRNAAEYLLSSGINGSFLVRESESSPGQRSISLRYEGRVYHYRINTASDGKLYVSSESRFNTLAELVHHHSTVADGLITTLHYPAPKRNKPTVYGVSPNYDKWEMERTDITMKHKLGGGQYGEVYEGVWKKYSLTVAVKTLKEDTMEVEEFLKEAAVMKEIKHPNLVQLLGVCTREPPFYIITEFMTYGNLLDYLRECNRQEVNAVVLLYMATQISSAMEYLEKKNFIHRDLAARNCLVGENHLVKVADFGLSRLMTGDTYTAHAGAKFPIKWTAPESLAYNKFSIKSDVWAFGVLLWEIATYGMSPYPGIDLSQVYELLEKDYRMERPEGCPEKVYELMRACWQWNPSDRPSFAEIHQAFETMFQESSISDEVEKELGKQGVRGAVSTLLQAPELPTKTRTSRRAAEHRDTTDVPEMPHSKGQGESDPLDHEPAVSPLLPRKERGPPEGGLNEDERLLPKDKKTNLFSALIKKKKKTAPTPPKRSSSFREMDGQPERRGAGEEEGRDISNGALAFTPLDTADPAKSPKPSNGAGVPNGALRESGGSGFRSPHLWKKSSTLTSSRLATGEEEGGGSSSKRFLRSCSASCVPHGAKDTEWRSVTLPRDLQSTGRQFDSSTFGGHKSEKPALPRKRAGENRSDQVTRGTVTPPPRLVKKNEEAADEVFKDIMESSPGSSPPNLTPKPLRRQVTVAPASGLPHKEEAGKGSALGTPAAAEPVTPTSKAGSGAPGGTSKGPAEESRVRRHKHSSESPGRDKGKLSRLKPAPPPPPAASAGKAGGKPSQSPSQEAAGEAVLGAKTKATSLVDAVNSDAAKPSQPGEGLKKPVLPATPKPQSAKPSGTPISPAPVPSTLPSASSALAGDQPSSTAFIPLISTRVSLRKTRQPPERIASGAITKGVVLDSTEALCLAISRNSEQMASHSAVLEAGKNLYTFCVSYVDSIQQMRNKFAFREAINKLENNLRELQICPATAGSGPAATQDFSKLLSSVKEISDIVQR

Cc1nc(Nc2ncc(C(=O)Nc3c(C)cccc3Cl)s2)cc(N2CCC(O)CC2)n1 [Compound IX, N-(2-chloro-6-methylphenyl)-2-[[2-methyl-6-(4-hydroxypiperidin-1-yl)pyrimidin-4-yl]amino]thiazole-5-carboxamide]
> 50%: inhibition at 0.001 µM (ABL) | inhibition at 0.01 µM (ABL) | inhibition at 0.001 µM (BMX) | inhibition at 0.01 µM (BMX) | inhibition at 0.01 µM (DDR2) | inhibition at 0.01 µM (EPHA1) | inhibition at 0.01 µM (FMS) | inhibition at 0.01 µM (FRK) | inhibition at 0.001 µM (LYNa) | inhibition at 0.01 µM (LYNa) | inhibition at 0.01 µM (PDGFRβ) | inhibition at 0.01 µM (PIK3CA/PIK3R1)

[2H]c1cc(C)c(NC(=O)c2cnc(Nc3cc(N4CC[C@@H](O)C4)nc(C)n3)s2)c(Cl)c1 [Compound V, N-(2-chloro-4-deutero-6-methylphenyl)-2-[[2-methyl-6-((R)-3-hydroxypyrrolidin-1-yl)pyrimidin-4-yl]amino]thiazole-5-carboxamide]
> 50%: inhibition at 0.001 µM (ABL) | inhibition at 0.01 µM (ABL) | inhibition at 0.001 µM (BMX) | inhibition at 0.01 µM (BMX) | inhibition at 0.01 µM (DDR2) | inhibition at 0.01 µM (EPHA1) | inhibition at 0.01 µM (FMS) | inhibition at 0.01 µM (FRK) | inhibition at 0.001 µM (LYNa) | inhibition at 0.01 µM (LYNa) | inhibition at 0.01 µM (PDGFRβ) | inhibition at 0.01 µM (PIK3CA/PIK3R1)

Cc1nc(Nc2ncc(C(=O)Nc3c(C)cccc3Cl)s2)cc(N2CC[C@@H](O)C2)n1 [Compound XI, N-(2-chloro-6-methylphenyl)-2-[[2-methyl-6-((R)-3-hydroxypyrrolidin-1-yl)pyrimidin-4-yl]amino]thiazole-5-carboxamide]
> 50%: inhibition at 0.001 µM (ABL) | inhibition at 0.01 µM (ABL) | inhibition at 0.001 µM (BMX) | inhibition at 0.01 µM (BMX) | inhibition at 0.01 µM (DDR2) | inhibition at 0.01 µM (EPHA1) | inhibition at 0.01 µM (FMS) | inhibition at 0.01 µM (FRK) | inhibition at 0.001 µM (LYNa) | inhibition at 0.01 µM (LYNa) | inhibition at 0.01 µM (PDGFRβ) | inhibition at 0.01 µM (PIK3CA/PIK3R1)

Cc1nc(Nc2ncc(C(=O)Nc3c(C)cccc3Cl)s2)cc(N2CC[C@@H](N)C2)n1 [Compound XIII, N-(2-chloro-6-methylphenyl)-2-[[2-methyl-6-((R)-3-aminopyrrolidin-1-yl)pyrimidin-4-yl]amino]thiazole-5-carboxamide]
> 50%: inhibition at 0.001 µM (ABL) | inhibition at 0.01 µM (ABL) | inhibition at 0.001 µM (BMX) | inhibition at 0.01 µM (BMX) | inhibition at 0.01 µM (DDR2) | inhibition at 0.01 µM (EPHA1) | inhibition at 0.01 µM (FMS) | inhibition at 0.01 µM (FRK) | inhibition at 0.001 µM (LYNa) | inhibition at 0.01 µM (LYNa) | inhibition at 0.01 µM (PDGFRβ) | inhibition at 0.01 µM (PIK3CA/PIK3R1)
